Results reported in ChEMBL document CHEMBL5150057, “Making Protein Degradation Visible: Discovery of Theranostic PROTACs for Detecting and Degrading NAMPT” (J Med Chem, 2022).
Activity calls are given as the source filed them. No cut-off for these calls is given here.

How the values were obtained:
[1] = target: T1, Nicotinamide phosphoribosyltransferase (Homo sapiens, UniProt P43490); assay: Induction of NAMPT degradation in human A2780 cells at 30 nM after 24 hrs by Western blot analysis; type: cell-based
Target sequence in this assay (P43490 whole entry, looked up): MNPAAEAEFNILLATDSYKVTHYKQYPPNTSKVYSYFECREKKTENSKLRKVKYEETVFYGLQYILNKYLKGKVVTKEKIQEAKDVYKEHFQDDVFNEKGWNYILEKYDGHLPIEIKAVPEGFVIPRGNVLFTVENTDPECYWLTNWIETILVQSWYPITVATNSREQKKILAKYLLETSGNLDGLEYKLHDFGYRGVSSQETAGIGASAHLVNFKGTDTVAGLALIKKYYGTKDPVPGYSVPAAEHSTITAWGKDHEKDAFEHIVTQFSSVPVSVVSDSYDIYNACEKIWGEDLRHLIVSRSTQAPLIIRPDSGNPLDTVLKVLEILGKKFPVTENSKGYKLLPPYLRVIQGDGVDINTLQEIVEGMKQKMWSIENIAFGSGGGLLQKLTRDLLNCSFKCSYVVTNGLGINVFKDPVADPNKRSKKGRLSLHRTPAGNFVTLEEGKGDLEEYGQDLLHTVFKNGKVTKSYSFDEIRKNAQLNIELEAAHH

A2780 [2] = assay: Cytotoxicity against human A2780 cells assessed as cell growth inhibition incubated for 72 hrs by CCK-8 assay; type: functional, cell-based; settings: A2780, 72 h
[3] = target: T1, Nicotinamide phosphoribosyltransferase; assay: Induction of NAMPT degradation in human A2780 cells at 100 nM after 24 hrs by Western blot analysis; type: cell-based
Target sequence in this assay (P43490 whole entry, looked up): as above

[4] = Drug uptake in human A2780 cells at 500 nM after 6 hrs by confocal imaging analysis; type: ADME, cell-based; settings: a2780, 6 h, 0.5 µM
[5] = Drug uptake in human A2780 cells at 500 nM within 1 to 6 hrs by confocal imaging analysis; type: ADME, cell-based; settings: a2780, 0.5 µM, time 1-6 hrs
[6] = target: T1, Nicotinamide phosphoribosyltransferase; assay: Inhibition of NAMPT catalytic domain (unknown origin) using NAM as substrate preincubated for 5 mins followed by substrate addition
Target sequence in this assay (P43490 whole entry): as the sequence (P43490 whole entry, looked up) above

HUVEC = assay: Cytotoxicity against HUVEC assessed as cell growth inhibition incubated for 72 hrs by CCK-8 assay; type: toxicity, cell-based; settings: human
[7] = Toxicity in BALB/c nude mouse xenografted with human A2780 cells at 30 mg/kg, ip administered once daily for 14 days by caliper method; type: organism-based; settings: in vivo, 336 h, time 14 day
[8] = target: T1, Nicotinamide phosphoribosyltransferase; assay: Binding affinity to NAMPT in human A2780 cells by flow cytometry analysis; type: cell-based; settings: time 0.5-24 hrs
Target sequence in this assay (P43490 whole entry, looked up): as above

[9] = target: T1, Nicotinamide phosphoribosyltransferase; assay: Induction of NAMPT degradation in human A2780 cells at 30 nM; type: cell-based; settings: time 1-24 hrs, TDE = time-dependent effect
Target sequence in this assay (P43490 whole entry, looked up): as above

[10] = target: T1, Nicotinamide phosphoribosyltransferase; assay: Induction of NAMPT degradation in human A2780 cells at 30 nM incubated for 24 hrs in presence of MG132; type: cell-based
Target sequence in this assay (P43490 whole entry, looked up): as above

[11] = MRT (0 to infinity) in Sprague-Dawley rat at 30 mg/kg, ip measured upto 24 hrs by LC-MS/MS analysis; type: ADME, organism-based; settings: in vivo
[12] = target: T1, Nicotinamide phosphoribosyltransferase; assay: Induction of NAMPT degradation in human A2780 cells at 30 nM after 24 hrs; type: cell-based
Target sequence in this assay (P43490 whole entry, looked up): as above

[13] = target: von Hippel-Lindau disease tumor suppressor (Homo sapiens) (UniProt P40337); assay: Binding affinity to VHL in human A2780 cells assessed as change in melting temperature at 10 uM after 2 hrs by CESTA; type: cell-based
A2780 [14] = assay: Antitumor activity against human A2780 cells xenografted in ip dosed BALB/c nude mouse administered once daily for 14 days by caliper method; type: functional, organism-based; settings: dose 10-30 mg/kg, time 14.0 day, DDE = dose-dependent effect
A2780 [15] = assay: Antitumor activity against human A2780 cells xenografted in BALB/c nude mouse assessed as tumor growth inhibition at 10 mg/kg, ip administered once daily for 14 days by caliper method; type: functional; settings: A2780, 336 h, time 14 day, read-out: TGI
[16] = target: T1, Nicotinamide phosphoribosyltransferase; assay: Binding affinity to NAMPT in human A2780 cells assessed as change in melting temperature at 10 uM after 2 hrs by CESTA; type: cell-based
[17] = AUC (0 to infinity) in Sprague-Dawley rat at 30 mg/kg, ip measured upto 24 hrs by LC-MS/MS analysis; type: ADME, organism-based; parameters: time < 24 hrs, dose 30 mg/kg, route ip; settings: in vivo
[18] = Toxicity in BALB/c nude mouse xenografted with human A2780 cells at 10 to 30 mg/kg, ip administered once daily for 14 days by caliper method; type: organism-based; settings: in vivo, 336 h, dose 10-30 mg/kg, time 14 day
[19] = Drug uptake in human A2780 cells at 500 nM within 1 to 6 hrs by immunostaining based assay; type: ADME, cell-based; settings: a2780, 0.5 µM, time 1-6 hrs
[20] = target: T1, Nicotinamide phosphoribosyltransferase; assay: Induction of NAMPT degradation in human A2780 cells assessed as downregulation of NAD+ levels at 4.1 nM incubated for 24 hrs […]; type: cell-based
[21] = Drug uptake in human A2780 cells at 1 uM after 30 mins by immunostaining based assay; type: ADME, cell-based; settings: a2780, 0.5 h
[22] = Photostability of compound in PBS at pH 7.4; type: physicochemical; settings: buffer
[23] = Tmax in Sprague-Dawley rat at 30 mg/kg, ip measured upto 24 hrs by LC-MS/MS analysis; type: ADME, organism-based; settings: in vivo
[24] = Cmax in Sprague-Dawley rat at 30 mg/kg, ip measured upto 24 hrs by LC-MS/MS analysis; type: ADME, organism-based; parameters: dose 30 mg/kg, time < 24 hrs, route ip; settings: in vivo
Mus musculus = assay: In vivo induction of NAMPT degradation in human A2780 cells xenografted in BALB/c mouse at 10 to 30 mg/kg, ip administered once daily for 14 days by immunofluorescence analysis; type: functional, organism-based; settings: dose 10-30 mg/kg, time 14.0 day
[25] = target: T1, Nicotinamide phosphoribosyltransferase; assay: Induction of NAMPT degradation in human A2780 cells at greater than 50 nM after 24 hrs by Western blot analysis; type: cell-based
A2780 [26] = assay: Antitumor activity against human A2780 cells xenografted in BALB/c nude mouse assessed as tumor growth inhibition at 30 mg/kg, ip administered once daily for 14 days by caliper method; type: functional; settings: A2780, 336 h, time 14 day, read-out: TGI
[27] = target: T1, Nicotinamide phosphoribosyltransferase; assay: Induction of NAMPT degradation in human A2780 cells after 24 hrs by Western blot analysis; type: cell-based
A2780 [28] = assay: Cytotoxicity against human A2780 cells assessed as cell growth inhibition incubated for 72 hrs in presence of (2S,4R)-1-(2-amino-3,3-dimethyl-butanoyl)-4-hydroxy-N-[(1S)-1-[4-(4-methylthiazol-5-yl)phenyl]ethyl]pyrrolidine-2-carboxamide by CCK-8 assay; type: functional, cell-based; settings: A2780, 72 h
[29] = Half life in Sprague-Dawley rat at 30 mg/kg, ip measured upto 24 hrs by LC-MS/MS analysis; type: ADME, organism-based; settings: in vivo
[30] = target: T1, Nicotinamide phosphoribosyltransferase; assay: Induction of NAMPT degradation in human A2780 cells at 30 nM after 1 hr; type: cell-based
[31] = target: T1, Nicotinamide phosphoribosyltransferase; assay: Induction of NAMPT degradation in human A2780 cells at 50 nM after 24 hrs by Western blot analysis; type: cell-based

Sequence of von Hippel-Lindau disease tumor suppressor (Homo sapiens) (P40337 whole entry, looked up): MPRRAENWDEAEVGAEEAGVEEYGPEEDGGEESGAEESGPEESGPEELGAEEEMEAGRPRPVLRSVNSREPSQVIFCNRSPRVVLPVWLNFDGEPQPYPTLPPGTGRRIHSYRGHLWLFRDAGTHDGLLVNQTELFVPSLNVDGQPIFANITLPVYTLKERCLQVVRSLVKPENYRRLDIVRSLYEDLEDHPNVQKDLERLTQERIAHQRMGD

Structure (SMILES): CCCn1c(=O)c(-c2ccc(C(=O)NCc3cccnc3)cc2)nc2ccc(NC(=O)CCCCCCC(=O)N[C@H](C(=O)N3C[C@H](O)C[C@H]3C(=O)N[C@@H](C)c3ccc(-c4scnc4C)cc3)C(C)(C)C)cc21
- Activity [1]: Active
- IC50 (A2780 [2]): 20.8 nM
- Activity [3]: Active

Structure (SMILES): CCCn1c(=O)c(-c2ccc(C(=O)NCc3cccnc3)cc2)nc2ccc(NC(=O)CCCCCCCCCCC(=O)N[C@H](C(=O)N3C[C@@H](O)C[C@@H]3C(=O)N[C@@H](C)c3ccc(-c4scnc4C)cc3)C(C)(C)C)cc21
- IC50 (A2780 [2]): 143 nM
- Drug uptake [4]: Active
- Drug uptake [5]: Active

Structure (SMILES): CCCn1c(=O)c(-c2ccc(C(=O)NCc3cccnc3)cc2)nc2ccccc21
- IC50 [6]: 57.8 nM
- IC50 (A2780 [2]): 99 nM
- Activity (HUVEC): Non-Toxic
- Activity [7]: Toxic

Structure (SMILES): CCCn1c(=O)c(-c2ccc(C(=O)NCc3cccnc3)cc2)nc2ccc(NC(=O)CCCCC(=O)N[C@H](C(=O)N3C[C@H](O)C[C@H]3C(=O)N[C@@H](C)c3ccc(-c4scnc4C)cc3)C(C)(C)C)cc21
- IC50 (A2780 [2]): 88 nM

Structure (SMILES): CCCn1c(=O)c(-c2ccc(C(=O)NCc3cccnc3)cc2)nc2ccc(NC(=O)CCCCCCCCCCC(=O)N[C@H](C(=O)N3C[C@H](O)C[C@H]3C(=O)N[C@@H](C)c3ccc(-c4scnc4C)cc3)C(C)(C)C)cc21
- Activity [8]: Active
- IC50 [6]: 41.9 nM
- Activity [1]: Active
- IC50 (A2780 [2]): 12.1 nM
- Activity [9]: Tde
- Activity [10]: Active
- MRT inf [11]: 12.7 h
- Activity [12]: Active
- Activity (HUVEC): Non-Toxic
- ΔTm [13]: > 2.62 °C
- Activity (A2780 [14]): Dde
- inhibition in vivo at 10 mg/kg (A2780 [15]): 53%
- ΔTm [16]: 5.11 °C
- AUC(0-inf) [17]: 1110 ng·h/mL
- Activity [18]: Non-Toxic
- Drug uptake [19]: Active
- Activity [20]: Active
- Drug uptake [21]: Active
- Stability [22]: Stable
- Tmax [23]: 4 h
- Cmax [24]: 175 ng/mL
- Activity (Mus musculus): Active
- Activity [25]: Active
- inhibition in vivo at 30 mg/kg (A2780 [26]): 73%
- DC50 [27]: 8.4 nM
- Activity ([27]; DDE = dose-dependent effect): Dde
- IC50 (A2780 [28]): 100 nM
- half-life [29]: 9.81 h
- Activity [30]: Active

Structure (SMILES): CCCn1c(=O)c(-c2ccc(C(=O)NCc3cccnc3)cc2)nc2ccc(NC(=O)CCCCCCCCC(=O)N[C@H](C(=O)N3C[C@H](O)C[C@H]3C(=O)N[C@@H](C)c3ccc(-c4scnc4C)cc3)C(C)(C)C)cc21
- Activity [1]: Active
- IC50 (A2780 [2]): 14 nM
- Activity [31]: Active
